# Read-outs that look alike come from different tables or passages of the source.
# Experiments:
# baboons [1] = details: ref Goodwin et al. 2005, cited from earlier work
# baboons [2] = details: 4 h after administration; reanalyzed data; ref Goodwin et al. 2005; cited from earlier work
# [3] = cited from earlier work; for Mean maximum concentration of GHB in plasma: human, 50 mg/kg GHB
# [4] = Pharmacokinetics: GHB in plasma after intragastric GHB, GBL or 1,4-BD; details: for Mean maximum concentration of GHB in plasma: baboon, ±SD
# humans = details: ref Carter et al. 2006; cited from earlier work
smiles,measurement,setting,value
"O=C(O)CCCO [GHB, Gamma-hydroxybutyrate]",Duration to complete the fine-motor task,"baboons [1]; 180−420 mg/kg, 120 min postadministration",increased
same,Duration to complete the fine-motor task,"baboons [1]; any dose tested, 60 min postadministration",did not alter
same,Food-maintained behavior compared to vehicle,baboons [2],not significantly altered
same,"Maximum concentration of GHB, range","[3]; human subjects, total doses of 3−4.5 g GHB (i.e., 42.8 mg/kg), ref Scharf et al. 1998",30 to 103 µg/mL
same,Mean maximum concentration of GHB in plasma,[3]; ref Abanades et al. 2007,83.1 (+10.7 SD) μg/ml
same,Mean maximum concentration of GHB in plasma,[3]; ref Palatini et al. 1993,20 µg/mL
same,Mean maximum concentration of GHB in plasma,[4]; 32 mg/kg GHB,18.46 (±8.66 SD) μg/ml
same,Mean maximum concentration of GHB in plasma,[4]; 100 mg/kg GHB,72.2 (±15.73 SD) μg/ml
same,AUC,"[4]; monkey, plasma, po, 320 mg/kg",4580 µM·h
same,Cmax,"[4]; monkey, plasma, po, 320 mg/kg",598 to 1940 µM
same,half-life,"[4]; monkey, plasma, po, 320 mg/kg",12.2 h
same,Tmax,"[4]; plasma, po, 320 mg/kg",6 h
same,Time of maximal drug effects postadministration,humans,1−2 h
